Test results: US6696432B1, “Combination of dehydroepiandrosterone and aromatase inhibitors and use of this combination to produce a medicament for treating relative and absolute androgen deficiency in men” (Schering Aktiengesellschaft, priority 1996, dated 2004)

Columns and labels:
[1] = test system: patients with prostate cancer; settings: pharmacological doses; cited from earlier work
[2] = test system: men with BPH (average age above 60 years); assay: Testosterone/estradiol (T/E2) ratio before and after atamestane, 4 clinical studies, 7 treatment groups; assay type: in vivo, human
Method: Gradual lowering of the estrogen concentration induces a counterregulatory stimulation of androgen synthesis. To a certain extent, there is an endogenic testosterone substitution, by which the androgen/estrogen balance is again brought back to the “youthful” range. This substantiates the results of the longer-term treatment of older men (average age above 60 years) with the selective aromatase inhibitor atamestane.
(§1) In several clinical studies, atamestane was administered at varying dosages and over periods of up to 48 weeks to men in this age group to treat an existing BPH. […] Table 5 provides the testosterone/estrogen ratio before and after the administration of atamestane for patient populations from 4 studies and 7 treatment groups.
Assuming that the testosterone dominance that was reduced by 30-50% in the age group of patients over 60 years compared to the younger years (relative androgen deficiency) caused the symptoms of “male menopause,” the goal is thus to restore the original “balance of power” between androgens and estrogens by administering a preferably selective aromatase inhibitor by stimulating endogenic testosterone substitution without the necessity of supplying androgens exogenically. Based on the understanding that the ratio prevailing in age is the result of a 30-50% reduction compared to the youthful values, i.e., is always 50-70% of the previous value, the corresponding “youthful” previous value can be calculated for each individual patient. A patient with a testosterone/estradiol ratio of 230:1 must accordingly be adjusted to a new balance in the range between […] to 460:1, so that a preceding 30 or 50% reduction is compensated for.

patients with BPH [3] = assay: Longer-term clinical studies with atamestane in BPH patients, hormone levels; assay type: in vivo, human
Method: as §1
The administration of atamestane consistently results in a resetting of the testosterone/estradiol balance in favor of the androgenic component. This action was detectable over the entire observation period up to a maximum of 48 weeks of treatment.

patients with BPH [4] = assay: 48-week atamestane treatment (400 mg vs placebo), testosterone serum concentration; assay type: in vivo, human; settings: daily dose 400 mg
Description: (§2) Tables 3 and 4 show the results after a 48-week treatment.

patients with BPH [5] = assay: 48-week atamestane treatment (100 mg, 300 mg vs placebo), testosterone serum concentration; assay type: in vivo, human; settings: for Testosterone Serum Concentration Δ % (X ± SD): 48 weeks
Description: as §2

patients with BPH [6] = assay: 24-week four-way study of atamestane versus placebo, testosterone serum concentration; assay type: in vivo, human; settings: for Testosterone Serum Concentration Δ % (median ± SD): 24 weeks

CC/C(=C(/CC)c1ccc(O)cc1)c1ccc(O)cc1 [diethylstilbestrol]
testosterone level in the serum [1]: castration level

CC1=CC(=O)C=C2CC[C@@H]3[C@H](CC[C@]4(C)C(=O)CC[C@@H]34)[C@@]12C [atamestane, 1-Methyl-androsta-1,4-diene-3,17-dione]
T/E2 Ratio % Δ ([2]; 100 mg, 24 weeks): +48%
T/E2 Ratio % Δ ([2]; 100 mg, 48 weeks): +41%
T/E2 Ratio % Δ ([2]; 200 mg t.i.d., 8 weeks): +46%
T/E2 Ratio % Δ ([2]; 300 mg, 24 weeks): +58%
T/E2 Ratio % Δ ([2]; 300 mg, 48 weeks): +46%
T/E2 Ratio % Δ ([2]; 400 mg, 48 weeks): +54%
T/E2 Ratio % Δ ([2]; 600 mg, 24 weeks): +61%
achieved T/E2 versus calculated "youthful" target range ([2]; daily dose of 100 mg): target range is generally readily met
achieved T/E2 versus calculated "youthful" target range ([2]; higher dosages (above 100 mg daily)): somewhat above the target range
alteration of the testosterone/estradiol ratio ([2]; varying dosages, periods of up to 48 weeks): significant alteration of the testosterone/estradiol ratio in favor of testosterone
peripheral estrogen reduction (patients with BPH [3]; daily doses of 100 mg-600 mg): equally intense
testosterone concentration after longer-term treatment (patients with BPH [3]; treatment lasting 24 to 48 weeks, patients with BPH): significant increase
Testosterone Serum Concentration Δ % (X ± SD) (patients with BPH [4]; 48 weeks): 42.9 ± 53.5%
Testosterone Serum Concentration After 48 Weeks (patients with BPH [4]; previous value 4.2): 5.4 ng/mL
Testosterone Serum Concentration Δ % (X ± SD) (patients with BPH [5]; daily dose 100 mg): 19.0 ± 36.8%
Testosterone Serum Concentration After 48 Weeks (patients with BPH [5]; daily dose 100 mg, previous value 5.1): 5.9 ng/mL
Testosterone Serum Concentration Δ % (X ± SD) (patients with BPH [5]; daily dose 300 mg): 41.7 ± 46.4%
Testosterone Serum Concentration After 48 Weeks (patients with BPH [5]; daily dose 300 mg, previous value 4.7): 6.6 ng/mL
Testosterone Serum Concentration Δ % (median ± SD) (patients with BPH [6]; daily dose 100 mg): 29.57 ± 34.70%
Testosterone Serum Concentration After 24 Weeks (patients with BPH [6]; daily dose 100 mg, previous value 4.41): 5.57 ng/mL
Testosterone Serum Concentration Δ % (median ± SD) (patients with BPH [6]; daily dose 300 mg): 40.88 ± 156.12%
Testosterone Serum Concentration After 24 Weeks (patients with BPH [6]; daily dose 300 mg, previous value 4.50): 6.15 ng/mL
Testosterone Serum Concentration Δ % (median ± SD) (patients with BPH [6]; daily dose 600 mg): 41.19 ± 37.62%
Testosterone Serum Concentration After 24 Weeks (patients with BPH [6]; daily dose 600 mg, previous value 3.78): 5.40 ng/mL
